In general, AC50 refers to the concentration giving half of the maximal activity seen.

The source of these data is PubChem BioAssay AID743399 (Broad Institute, 2014).

Structures are written as SMILES. Records with an inconclusive call do not appear. Activity calls are given as the source filed them.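 Rule for the calls: active = compounds lowering the signal whose fitted AC50 is no more than twice their top tested dose; inconclusive = flat curve with activity from -70 to -30%, or bad fit; inactive = the rest.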 A value given as a limit tells only on which side of the number the result lay.

System in the first test: not listed separately
Kind of test: enhancers of miR-122 activity, Renilla sensor – cell-based, psiCHECK-miR122, Huh7, dry powder, miR-122 modulator project, dose response (AID 743399). The settings on record: Huh7 psiCHECK-miR122 Renilla luciferase reporter, 48 h; at 35 µM (top of the series).
On to `Cn1c(=O)c(=O)n(C)c2cc(S(=O)(=O)N3CCOCC3)ccc21`, for which the activity change, negative = miR122 activation is 0% (inactive). Same read-out and setting: the value for `O=C(Nc1ccc(-c2nc3ccccc3o2)cc1)c1cc(-n2cnnc2)ccc1Cl` was 0% (inactive).

For `COCC(=O)N(C)C[C@@H]1Oc2ncc(-c3ccc(C#N)cc3)cc2C(=O)N([C@@H](C)CO)C[C@@H]1C`, the activity change, negative = miR122 activation was -4.35% (inactive). Same read-out and setting: to `CN1C(=O)c2cc(NC(=O)c3cccc(F)c3)ccc2OC[C@@H]2O[C@H](CC(=O)O)CC[C@H]21` belongs -41.3% (inactive); to `Cc1cc(C(C)(C)C)cc(S(=O)(=O)N2CCOCC2)c1C`, 92.3% (inactive); to `CCOC(=O)N1CCC(NC(=O)c2ccc3c(c2)sc2nc(-c4ccccc4)cn23)CC1`, -23.1% (inactive). Regarding `CN1C(=O)c2cc(NC(=O)c3cccc(F)c3)ccc2OC[C@H]2O[C@@H](CC(=O)O)CC[C@@H]21`, the activity change, negative = miR122 activation is 20.2% (inactive). Same read-out and setting: to `CN1C(=O)c2cc(NC(=O)c3cccc(F)c3)ccc2OC[C@@H]2O[C@H](CC(=O)O)CC[C@@H]21` belongs -15.2% (inactive); to `CCCCN(CCCC)C(=O)CN(C)S(=O)(=O)c1ccc2c(c1)n(C)c(=O)c(=O)n2C`, 46.2% (inactive); to `CO[C@@H]1CN(C)C(=O)c2cc(NS(=O)(=O)c3ccc(Oc4ccccc4)cc3)ccc2OC[C@H](C)NC[C@@H]1C`, 8.7% (inactive). With `CCOC(=O)N1CCC(NC(=O)c2ccc3nc(N4CCC(C)CC4)sc3c2)CC1`, the activity change, negative = miR122 activation was 53.8% (inactive). Consider `C/C=C/c1cnc2c(c1)C(=O)N([C@@H](C)CO)C[C@H](C)[C@H](CN(C)S(=O)(=O)c1ccc(OC)cc1)O2`, for which the activity change, negative = miR122 activation was 26.1% (inactive).

Consider `O=C(CN=C1NS(=O)(=O)c2ccccc21)Nc1ccccc1N1CCCCCC1`, for which the activity change, negative = miR122 activation was -23.1% (inactive).

As for `C[C@H]1CN([C@@H](C)CO)C(=O)c2cc(-c3ccc(C#N)cc3)cnc2O[C@H]1CN(C)C(=O)c1ccccc1`, the activity change, negative = miR122 activation was 10.9% (inactive).

Consider `CN1C(=O)c2cc(NC(=O)c3cccc(F)c3)ccc2OC[C@H]2O[C@H](CC(=O)O)CC[C@H]21`, for which the activity change, negative = miR122 activation is -17.4% (inactive).

Turning to `CN1C(=O)c2cc(NC(=O)c3cccc(F)c3)ccc2OC[C@@H]2O[C@@H](CC(=O)O)CC[C@@H]21`, the activity change, negative = miR122 activation is -10.9% (inactive).

With `CN1C(=O)c2cc(NC(=O)c3cccc(F)c3)ccc2OC[C@H]2O[C@@H](CC(=O)O)CC[C@H]21`, the activity change, negative = miR122 activation is 52.2% (inactive).

For `O=C(NCc1ccccc1Cl)c1ccc(CNc2c(NC3CCCCC3)c(=O)c2=O)cc1`, the activity change, negative = miR122 activation was -30.8% (inactive). Same read-out and setting: the value for `COc1cccc(C(=O)Nc2ccc3c(c2)C(=O)N(C)C[C@@H](OC)[C@@H](C)CN[C@@H](C)CO3)c1` was 4.35% (inactive); that for `CN1C(=O)c2cc(NC(=O)c3cccc(F)c3)ccc2OC[C@H]2O[C@H](CC(=O)O)CC[C@@H]21` was -21.7% (inactive). On the same count and under the same terms, the value for `CO[C@@H]1CN(C)C(=O)c2cc(NC(=O)c3ccc4c(c3)OCO4)ccc2OC[C@H](C)NC[C@@H]1C` was -21.7% (inactive). On the same count and under the same terms, the value for `O=S(=O)(NCCc1ccncc1)c1ccccc1` was 515% (inactive); that for `C[C@H]1CN([C@@H](C)CO)C(=O)c2cc(-c3ccc(C#N)cc3)cnc2O[C@H]1CN(C)Cc1cncnc1` was -10.9% (inactive); that for `O=C(c1ccc(CN2CCOCC2)cc1)N1CCc2ccccc21` was 15.4% (inactive).

A further test deals with Huh7 psiCHECK-miR122 Renilla luciferase reporter, 48 h. The test is described as above.
Conditions: not given
Regarding `COCC(=O)N(C)C[C@H]1Oc2cc(C#Cc3cccnc3)ccc2S(=O)(=O)N([C@@H](C)CO)C[C@H]1C`, the AC50 is 0.354 µM. On the same count and under the same terms, the value for `C[C@H]1CN([C@@H](C)CO)S(=O)(=O)c2ccc(C#Cc3ccncc3)cc2O[C@H]1CN(C)C(=O)C1CCOCC1` was 20.7 µM; that for `O=C(c1ccc(CNc2c(NC3CCCCC3)c(=O)c2=O)cc1)N1CCc2ccccc21` was 1.18 µM. The same measure, in the same setting: the value for `CNC[C@@H]1Oc2cc(C#CC3CCCCC3)ccc2S(=O)(=O)N([C@@H](C)CO)C[C@@H]1C` was 14.4 µM. The same measure, in the same setting: the value for `COCC(=O)N(C)C[C@H]1Oc2cc(C#Cc3cccnc3)ccc2S(=O)(=O)N([C@H](C)CO)C[C@H]1C` was < 0.26 µM; that for `CN(C)CCN1C(=O)c2cccc3cc(N)cc(c23)C1=O` was 10.7 µM; that for `COCC(=O)N(C)C[C@H]1Oc2cc(-c3ccccc3F)ccc2S(=O)(=O)N([C@H](C)CO)C[C@H]1C` was < 0.26 µM. On to `COc1ccc(S(=O)(=O)N(C)C[C@@H]2Oc3ncc(/C=C/c4ccccc4)cc3C(=O)N([C@@H](C)CO)C[C@@H]2C)cc1`, for which the AC50 was 22.1 µM. With `C[C@@H]1CN([C@H](C)CO)S(=O)(=O)c2ccc(C#Cc3ccncc3)cc2O[C@H]1CN(C)C(=O)C1CCOCC1`, the AC50 was 0.496 µM.

With `CN1C(=O)c2cc(NC(=O)c3cccc(F)c3)ccc2OC[C@@H]2O[C@@H](CC(=O)O)CC[C@H]21`, the AC50 is > 60 µM (inactive). `COCC(=O)N(C)C[C@H]1Oc2cc(-c3ccc(C#N)cc3)ccc2S(=O)(=O)N([C@@H](C)CO)C[C@H]1C`: the AC50 was 0.341 µM. Same read-out and setting: the value for `Nc1ccc(Oc2ccc(Br)cc2)cc1` was 1.09 µM; that for `CCn1cc(C(=O)O)c(=O)c2cc(F)c(N3CCNCC3)nc21` was > 70 µM (inactive); that for `C[C@H]1CN([C@@H](C)CO)C(=O)c2cc(-c3ccc(C#N)cc3)cnc2O[C@H]1CN(C)C(=O)Nc1ccc(C(F)(F)F)cc1` was 6.96 µM. Still for that read-out and setting: the value for `O=C(CNCCC1=CCCCC1)Nc1ccccc1N1CCCCCC1` was 16.3 µM; that for `C[C@@H]1CN([C@H](C)CO)S(=O)(=O)c2ccc(C#Cc3ccncc3)cc2O[C@@H]1CN(C)C(=O)C1CCOCC1` was 0.896 µM. The same measure, in the same setting: the value for `C[C@H]1CN([C@@H](C)CO)S(=O)(=O)c2ccc(C#Cc3ccncc3)cc2O[C@@H]1CN(C)C(=O)C1CCOCC1` was 9.44 µM; that for `COCC(=O)N(C)C[C@H]1Oc2cc(-c3ccc(C#N)cc3)ccc2S(=O)(=O)N([C@H](C)CO)C[C@H]1C` was 0.324 µM. Regarding `Cc1cc(C(C)(C)C)cc(S(=O)(=O)NCCc2ccncc2)c1C`, the AC50 was 2.34 µM. Same read-out and setting: the value for `C[C@H]1CN([C@@H](C)CO)C(=O)c2cc(C#Cc3ccccc3F)cnc2O[C@H]1CN(C)C(=O)C1CCCCC1` was 20.6 µM. The same measure, in the same setting: the value for `OCc1ccc(-c2nn(Cc3ccccc3)c3ccccc23)o1` was 0.449 µM; that for `CO[C@@H]1CN(C)C(=O)c2cc(NC(=O)c3cccc(Oc4ccccc4)c3)ccc2OC[C@H](C)NC[C@@H]1C` was 7.62 µM; that for `CCCC#Cc1ccc2c(c1)O[C@H](CN(C)C(=O)COC)[C@H](C)CN([C@@H](C)CO)S2(=O)=O` was 1.1 µM. The same measure, in the same setting: the value for `Nc1ccc(Oc2ccc(Cl)cc2)cc1` was 3.4 µM. As to `COc1cccc(-c2ccc3c(c2)O[C@H](CN(C)C(=O)C2CCOCC2)[C@H](C)CN([C@@H](C)CO)S3(=O)=O)c1`, the AC50 is 4.07 µM. Still for that read-out and setting: the value for `CCCC#Cc1ccc2c(c1)O[C@H](CN(C)C(=O)c1ccncc1)[C@H](C)CN([C@@H](C)CO)S2(=O)=O` was 12.8 µM. Same read-out and setting: the value for `C[C@@H]1CN([C@H](C)CO)S(=O)(=O)c2ccc(/C=C/c3ccccc3)cc2O[C@@H]1CN(C)C(=O)c1cccnc1` was 7.29 µM. Turning to `Cc1cccc(NC(=O)Nc2ccc3c(c2)C(=O)N(C)[C@@H]2CC[C@H](CC(=O)NCc4ccccc4Cl)O[C@H]2CO3)c1`, the AC50 was 22.2 µM.

`C[C@@H]1CN([C@@H](C)CO)S(=O)(=O)c2ccc(C#Cc3ccncc3)cc2O[C@@H]1CN(C)C(=O)C1CCOCC1`: the AC50 was 0.838 µM.

With `C[C@H](CO)N1C[C@H](C)[C@@H](CN(C)C(=O)C2CCOCC2)Oc2cc(C#Cc3ccncc3)ccc2S1(=O)=O`, the AC50 is 5.46 µM. As for `COCC(=O)N(C)C[C@H]1Oc2cc(-c3ccccc3F)ccc2S(=O)(=O)N([C@@H](C)CO)C[C@H]1C`, the concentration at half-maximal activity (AC50) was 0.278 µM.
